In test [1] the target is T1, Human immunodeficiency virus type 1 integrase (Human immunodeficiency virus 1, UniProt Q7ZJM1). The test is described as follows: Inhibition of Human immunodeficiency virus 1 integrase strand transfer activity after 30 mins by polyacrylamide gel electrophoresis.
In test [2] the target is T1, Human immunodeficiency virus type 1 integrase. The test is described as follows: Inhibition of Human immunodeficiency virus 1 integrase-mediated 3'-processing after 30 mins by polyacrylamide gel electrophoresis.
The subject of test [3] is Human immunodeficiency virus 1. The test is described as follows: Antiviral activity against Human immunodeficiency virus 1 infected in human PBMC assessed as inhibition of viral replication after 5 days by RT-PCR method. To be noted: Human immunodeficiency virus 1, 120 h. It counts as functional, organism-based.
A further test relates to CCRF-CEM. The test is described as follows: Cytotoxicity against human CEM cells. It counts as cell-based.
The subject of a further test is Vero. The test is described as follows: Cytotoxicity against african green monkey Vero cells. It counts as cell-based. To be noted: Chlorocebus sabaeus.
The subject of the next test is PBMC. The test is described as follows: Cytotoxicity against human PBMC. It counts as cell-based.
Test [4] concerns the target Human immunodeficiency virus type 1 integrase (Human immunodeficiency virus 1) (UniProt Q7ZJM1). Put plainly: Selectivity ratio of IC50 for Human immunodeficiency virus 1 integrase-mediated 3'-processing to IC50 for Human immunodeficiency virus 1 integrase strand transfer activity.

What is called IC50 is the concentration needed to halve the response being measured. A word on the EC50: it is the concentration that produces a half-maximal response.

T1 sequence (Q7ZJM1 whole entry): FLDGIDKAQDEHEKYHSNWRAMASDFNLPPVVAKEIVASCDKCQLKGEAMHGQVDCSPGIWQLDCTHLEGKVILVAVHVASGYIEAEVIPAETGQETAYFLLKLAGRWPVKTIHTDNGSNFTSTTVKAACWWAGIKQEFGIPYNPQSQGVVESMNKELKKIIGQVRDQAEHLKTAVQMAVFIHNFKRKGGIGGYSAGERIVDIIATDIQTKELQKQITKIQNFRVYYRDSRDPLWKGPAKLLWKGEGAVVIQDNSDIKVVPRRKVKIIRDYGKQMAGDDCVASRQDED
Sequence of Human immunodeficiency virus type 1 integrase (Human immunodeficiency virus 1) (Q7ZJM1 as listed by the source): as the sequence (Q7ZJM1 whole entry) above

On to `O=C(O)C(=O)CC(=O)c1ccc2ccc3c(Cl)cccc3c2c1`, for which the IC50 in test [1] worked out at 1.2 µM; in test [2], 11 µM.
The matching figures for `O=C(O)C(=O)CC(=O)c1ccc2ccc3c(F)cccc3c2c1`: 3 µM and 11 µM.
As to `COc1ccc2c(c1)cc(C(=O)CC(=O)C(=O)O)c1c(F)cccc12`, the IC50 came out at 6 µM in test [1] and 44 µM in test [2].
For `O=C(O)C(=O)CC(=O)c1ccc2c(ccc3ccc(Cl)cc32)c1`, the EC50 in test [3] was found to be 27.5 µM. Moreover, the IC50 with CCRF-CEM was 13.1 µM; in test [1], 1.3 µM; in test [2], 5 µM; in the test with Vero it was 4.5 µM; in the test on PBMC, 4 µM.
For the molecule `O=C(O)C(=O)CC(=O)c1ccc2c(ccc3c(F)cccc32)c1`, the IC50 in test [1] worked out at 4 µM; in test [2], 35 µM.
Take `Cc1cn([C@H]2C[C@H](N=[N+]=[N-])[C@@H](CO)O2)c(=O)[nH]c1=O` [ZIDOVUDINE]: in the test with PBMC, the IC50 was greater than 100 µM.
Regarding `O=C(O)C(=O)CC(=O)c1ccc2ccc3cc(F)ccc3c2c1F`, the values for the IC50 in test [1] and in test [2] were 8 µM and 63 µM, respectively.
With `O=C(O)C(=O)CC(=O)c1ccc2c(ccc3cc(Cl)ccc32)c1`, in test [3], the EC50 stood at 20.9 µM. Further, the Ratio IC50 in test [4] worked out at 9. Also, the IC50 in the test with CCRF-CEM is 12.1 µM; in test [1], 1.4 µM; in test [2], 12 µM; in the test with Vero, 7.2 µM; with PBMC, 14.1 µM.
As for `O=C(O)C(=O)CC(=O)c1ccc2c(ccc3c(Cl)cccc32)c1`, the IC50 in test [1] amounted to 4 µM; in test [2], 19 µM.
With `COc1ccc2c(c1)cc(C(=O)CC(=O)C(=O)O)c1ccccc12`, the results for the IC50 in test [1] and in test [2] were 3 µM and 32 µM, respectively.
As to `O=C(O)C(=O)CC(=O)c1ccc2ccc3ccccc3c2c1F`, the values for the IC50 in test [1] and in test [2] were 63 µM and 83 µM, respectively.

The values above are taken from ChEMBL document CHEMBL2440103, “Synthesis, docking, and biological studies of phenanthrene β-diketo acids as novel HIV-1 integrase inhibitors” (Bioorg Med Chem Lett, 2013).
